# In ChEMBL document CHEMBL1201862, “PubChem BioAssay data set” (2004):
#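 48-hour exposure; five concentrations; linearly interpolated endpoints. At the GI50, growth is halved.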 Active and inactive are the calls of the source. No stated cut-off is given here; in the data, active = GI50 up to about 1.1 µM and inactive = higher.
# How the values were obtained:
# Test in all cases: NCI anticancer screen, dose series, 48 h
# DLD-1 = system: DLD-1
# HOP-18 = system: HOP-18
# M19-MEL = system: M19-MEL
# LXFL 529 = system: LXFL 529
# DMS-273 = system: DMS-273
# SNB-78 = system: SNB-78
# XF498 = system: XF498
# RXF 631 = system: RXF 631
# DMS-114 = system: DMS-114
Compound,GI50 (DLD-1),GI50 (HOP-18),GI50 (M19-MEL),GI50 (LXFL 529),GI50 (DMS-273),GI50 (SNB-78),GI50 (XF498),GI50 (RXF 631),GI50 (DMS-114)
CCCCN(CCCC)/C(=N\C#N)NCc1ccccc1,23.8 µM (inactive),46.6 µM (inactive),19 µM (inactive),15.4 µM (inactive),24.6 µM (inactive),26.5 µM (inactive),,,
CC1=CC(=O)NP(=O)(C23CC4CC(CC(C4)C2)C3)N1 (configuration not stated),> 100 µM (inactive),> 100 µM (inactive),> 100 µM (inactive),> 100 µM (inactive),> 100 µM (inactive),> 100 µM (inactive),> 100 µM (inactive),> 100 µM (inactive),
O=C1OC(O)C(Oc2c(Cl)cccc2Cl)=C1Cl (configuration not stated),15.7 µM (inactive),19.1 µM (inactive),,16.6 µM (inactive),15.8 µM (inactive),36.1 µM (inactive),,,
CC(=O)Nc1ccc(C(=O)NN2C(=O)C(Cl)C2c2ccc(O)cc2)cc1 (configuration not stated),> 100 µM (inactive),,> 100 µM (inactive),> 100 µM (inactive),> 100 µM (inactive),> 100 µM (inactive),52.8 µM (inactive),,
CC1(C)CC(=O)C(CC2C(=O)c3ccccc3C2=O)C(=O)C1,> 100 µM (inactive),> 100 µM (inactive),> 100 µM (inactive),> 100 µM (inactive),> 100 µM (inactive),> 100 µM (inactive),,,> 100 µM (inactive)
CCOC(=O)CNC1C(NC(C)=O)C(OC)OC2COC(c3ccccc3)OC21 (configuration not stated),,> 100 µM (inactive),> 100 µM (inactive),> 100 µM (inactive),> 100 µM (inactive),> 100 µM (inactive),,> 100 µM (inactive),> 100 µM (inactive)
C=C1C(=O)OC2/C=C(\CO)C3OC3C3OC3(C)CC(OC(=O)/C(=C/C)COC(C)=O)C12 (configuration not stated),1.11 µM (active),9.79 µM (inactive),1.88 µM (inactive),0.805 µM (active),3.12 µM (inactive),1.73 µM (inactive),1.8 µM (inactive),,5.87 µM (inactive)
OCCCCOC(c1ccccc1)(c1ccccc1)c1ccccc1,> 100 µM (inactive),,,> 100 µM (inactive),> 100 µM (inactive),> 100 µM (inactive),> 100 µM (inactive),,> 100 µM (inactive)
O=C(CC1(O)C(=O)Nc2c(Cl)cc(Cl)cc21)c1ccccc1 (configuration not stated),,,31.6 µM (inactive),50.1 µM (inactive),45.7 µM (inactive),81.3 µM (inactive),47.1 µM (inactive),> 100 µM (inactive),39.7 µM (inactive)
CC(=O)NC(CCCCN)C(=O)NCc1ccccc1 (configuration not stated),> 100 µM (inactive),,> 100 µM (inactive),> 100 µM (inactive),> 100 µM (inactive),,> 100 µM (inactive),,> 100 µM (inactive)
CC(=O)Nc1ccccc1-c1cnc2ccccc2n1,> 100 µM (inactive),> 100 µM (inactive),> 100 µM (inactive),> 100 µM (inactive),,> 100 µM (inactive),29.6 µM (inactive),,> 100 µM (inactive)
C=CCC(C)(C(=O)NCCC)C(=O)c1ccccc1O (configuration not stated),> 100 µM (inactive),> 100 µM (inactive),> 100 µM (inactive),> 100 µM (inactive),> 100 µM (inactive),> 100 µM (inactive),,,> 100 µM (inactive)
C=CCNC1=C(C(=O)OCC)C(=O)CO1,> 100 µM (inactive),,> 100 µM (inactive),> 100 µM (inactive),> 100 µM (inactive),> 100 µM (inactive),> 100 µM (inactive),> 100 µM (inactive),> 100 µM (inactive)
COc1cc(Br)c(CC2(C#N)c3ccccc3C3C(N2C(=O)c2ccccc2)C3(Cl)Cl)cc1OC (configuration not stated),19.3 µM (inactive),> 65.5 µM (inactive),,4.01 µM (inactive),2.69 µM (inactive),> 65.5 µM (inactive),> 65.5 µM (inactive),,16.3 µM (inactive)
CC(C(=O)c1ccccc1)C1(O)C(=O)Nc2ccccc21 (configuration not stated),> 100 µM (inactive),> 100 µM (inactive),> 100 µM (inactive),,> 100 µM (inactive),> 100 µM (inactive),,> 100 µM (inactive),> 100 µM (inactive)
C=CCNC(=S)N1CC(C)C(=O)Nc2cc(Cl)ccc21 (configuration not stated),> 100 µM (inactive),39.4 µM (inactive),> 100 µM (inactive),> 100 µM (inactive),> 100 µM (inactive),> 100 µM (inactive),,,> 100 µM (inactive)
CC(=O)C(O)N1C(=O)C=CC1=O (configuration not stated),1.88 µM (inactive),25.3 µM (inactive),5.89 µM (inactive),1.82 µM (inactive),14.7 µM (inactive),16.9 µM (inactive),17.3 µM (inactive),18.7 µM (inactive),5.86 µM (inactive)
c1ccc2[nH]c(-c3nc4ccccc4o3)nc2c1,> 100 µM (inactive),,> 100 µM (inactive),> 100 µM (inactive),> 100 µM (inactive),> 100 µM (inactive),> 100 µM (inactive),,> 100 µM (inactive)
Cc1ccc(C(=O)NCc2ccccc2)cc1/N=N/N(C)C,> 100 µM (inactive),,> 100 µM (inactive),47.5 µM (inactive),> 100 µM (inactive),> 100 µM (inactive),,,
Cc1c(/C=N/NC(=O)c2ccccc2)c(=O)n(-c2ccccc2)n1C,> 100 µM (inactive),> 100 µM (inactive),> 100 µM (inactive),> 100 µM (inactive),> 100 µM (inactive),> 100 µM (inactive),> 100 µM (inactive),,> 100 µM (inactive)
CCc1cc(Cc2ccc(C)c(NC(=O)C(=O)C3C(=O)NC(=O)NC3=O)c2CC)cc(C)c1NC(=O)C(=O)C1C(=O)NC(=O)NC1=O,> 100 µM (inactive),,> 100 µM (inactive),> 100 µM (inactive),> 100 µM (inactive),> 100 µM (inactive),,> 100 µM (inactive),> 100 µM (inactive)
COc1ccc2nc(NC(=O)C(=O)C(C(=O)c3ccccc3-c3ccccc3)C3OC(=O)c4ccccc43)sc2c1 (configuration not stated),18.7 µM (inactive),,15.1 µM (inactive),13.5 µM (inactive),,35 µM (inactive),21.5 µM (inactive),26.6 µM (inactive),16.6 µM (inactive)
